Measured values: patent EP0982027A1, “Taxoid derivatives for treating abnormal cell proliferation of the brain” (RHONE-POULENC RORER S.A., priority 1998, dated 2000)
Several values for one entry are separate records, joined by “and”; a condition that tells them apart may be missing. Identical values can stand only once. Like-named read-outs stand apart in the source and are kept apart here.

Test: in vivo
Design: species or system female C3H/HeN mice
Details: mouse, 40 mg.kg^-1 i.v.; for AUC0-∞: mean level data
Method: Groups of female C3H/HeN mice received the product by the intravenous route as a bolus at a dose level of 40 mg.kg^-1 equivalent to 120 mg.m^-2. Blood and brain samples were obtained from all dosed animals sacrificed at intervals up to 72 hours post dose. Brain and corresponding plasma samples have been assayed for product Ia content by an LC-MS/MS assay.
• Formulation: 2.25 mg.ml^-1 solution containing 5 % Polysorbate 80, 5 % ethanol and 90 % of an aqueous 5 % glucose solution. […]
• Sampling : Blood by cardiac puncture and liver and brain by dissection after CO2 sacrifice • Sample Times : at 2, 5, 15, 30, 45 minutes, 1, 2, 4, 6, 8, 14, 24, 48 and 72 hours post dose.
Whole blood was collected into heparinised tubes and corresponding plasma samples were obtained by centrifugation and frozen immediately at -20°C. Tissues were blotted, weighed and frozen immediately at -20°C. All samples were dispatched frozen for analysis. Upon receipt, samples were stored frozen at approximately -18°C pending analysis.
• Detection: LC-MS/MS (Sciex API III plus) in turbo-ionspray mode
The following MS conditions were applied:
Column: 75 x 4.6 mm Supelcosil ABZ plus (3 µm). Mobile phase: Acetonitrile/methanol/ammonium acetate (10mM); 40/25/35 v/v/v. Flow rate : 1 ml.min^-1. Temperature : Ambient. Extraction : Plasma: Add 100 µl of acetonitrile to sample (50 µl). Vortex, centrifuge, remove supernatant, add 100 µl of mobile phase and inject 150 µl. Brain : Add 100 µl of acetonitrile to homogenised sample (100 mg of a 1:1 w/w brain with water homogenate) and vortex. Add 1ml of diethyl ether, vortex, centrifuge, remove organic layer and dry under N2. Reconstitute in 200 µl of mobile phase and inject 150 µl. Calibration standards: Plasma : Nine at concentrations of 5, 10, 20, 50, 100, 200, 300, 400 & 500 ng.ml^-1 (product Ia). Prepared by adding suitable aliquots of the product (concentrations = 0.1, 1 or 10 µg.ml^-1) in ethanol to 0.5 ml aliquots of mouse plasma. Each sample was vortexed following drug addition; a 50 µl aliquot was then removed for assay. Brain : Eleven at concentrations of 10, 20, 30, 100, 200, 300, 400, 500, 1000, 2500 & 5000 ng.g^-1 in homogenised mouse brain (1:1 w/w brain with water). Prepared by adding suitable aliquots of the product (concentrations = 1, 10 or 100 µg.ml^-1) in ethanol to 0.5, 1, 3 or 4 g of homogenised mouse brain. Each sample was vortexed following drug addition and a 100 mg aliquot was then removed for assay. Retention times: Drug; product Ia: ∼2.3 min. Extraction efficiency : Plasma : ca.58 % at 200 ng.ml^-1. Brain : ca.41 % at 500 ng.g^-1 and 39 % at 1000 ng.g^-1.
A biexponential equation was fitted to the profiles using an interactive linear least-square algorithm as part of the SIPHAR package.
AUC0-∞: Area under the plasma or brain concentration versus time curve from t=0 (start of infusion) to infinity. Initial T1/2: Initial (distribution) half-life. Terminal T1/2: Terminal (elimination) half-life (should be regarded as an estimate only being dependent on sampling frequency in the terminal phase and assay sensitivity). ClT: Total plasma clearance. Vdss: Volume of distribution at steady state. n.a.: Not applicable.

**Q.** Which results are given for `CO[C@H]1C(=O)[C@]2(C)[C@@H](OC)C[C@H]3OC[C@@]3(OC(C)=O)[C@H]2[C@H](OC(=O)c2ccccc2)[C@]2(O)C[C@H](OC(=O)[C@H](O)[C@@H](NC(=O)OC(C)(C)C)c3ccccc3)C(C)=C1C2(C)C` [product Ia, 4α-acetoxy-2α-benzoyloxy-5β,20-epoxy-1β-hydroxy-7β,10β-dimethoxy-9-oxo-11-taxen-13α-yl (2R,3S)-3 tert-butoxycarbonylamino-2-hydroxy-3-phenylpropionate]?
**A.** AUC0-∞ (Brain, extrapolated from 72h to infinity): 788 h.µg.g^-1 and 787.8* h.µg.g^-1; ClT (Plasma#, calculated from values ≥ b.l.q. of 20 ng.ml^-1): 21.7 mL/min/kg; ClT (Plasma+, calculated from values ≥ l.o.d. of 4 ng.ml^-1): 21.7 mL/min/kg; AUC0-∞ (Plasma+, calculated from values ≥ l.o.d. of 4 ng.ml^-1, listed as product Ic, 40 mg/kg): 30.0 µg·h/mL; Cmax at 14 h (brain, iv, at 14h, read-out: brain peak levels): 9100 ng/g; half-life (iv, Brain, read-out: Terminal T1/2 (converted)): 31.4 h; clearance (iv, Plasma+, calculated from values ≥ l.o.d. of 4 ng.ml^-1, read-out: ClT (converted)): 21.7 mL/min/kg; time post dose up to which plasma levels were consistently above the limit of detection (limit 4 ng.ml^-1): up to 24 h; time post dose up to which plasma levels persisted above the limit of accurate quantification (limit 20 ng.ml^-1): up to 14 h; Plasma product Ic concentration (2 min after dose, individual animals IV1-IV4, 40 mg/kg, 2 min): 45942 ng/mL and 49607 ng/mL and 38994 ng/mL; Brain product Ic concentration (2 min after dose, individual animals IV1-IV4, listed as product Ic, 40 mg/kg, 2 min): 8817 ng/g and 8147 ng/g and 7630 ng/g; Plasma product Ic concentration (5 min after dose, individual animals IV1-IV4, 40 mg/kg, 5 min): 33538 ng/mL and 32077 ng/mL and 34903 ng/mL; Brain product Ic concentration (5 min after dose, individual animals IV1-IV4, listed as product Ic, 40 mg/kg, 5 min): 8473 ng/g and 7762 ng/g and 8091 ng/g; Plasma product Ic concentration (15 min after dose, individual animals IV1-IV4, 40 mg/kg, 15 min): 20897 ng/mL and 21051 ng/mL and 19459 ng/mL; Brain product Ic concentration (15 min after dose, individual animals IV1-IV4, listed as product Ic, 40 mg/kg, 15 min): 7100 ng/g and 7641 ng/g and 6481 ng/g; Plasma product Ic concentration (0.5h after dose, individual animals IV1-IV4, 40 mg/kg, 30 min): 10344 ng/mL and 9170 ng/mL and 11232 ng/mL; Brain product Ic concentration (0.5h after dose, individual animals IV1-IV4, listed as product Ic, 40 mg/kg, 30 min): 6788 ng/g and 8317 ng/g and 6894 ng/g; Plasma product Ic concentration (0.75h after dose, individual animals IV1-IV4, 40 mg/kg, 45 min): 10948 ng/mL and 8121 ng/mL and 10148 ng/mL; Brain product Ic concentration (0.75h after dose, individual animals IV1-IV4, listed as product Ic, 40 mg/kg, 45 min): 8086 ng/g and 7513 ng/g and 7272 ng/g; Plasma product Ic concentration (1h after dose, individual animals IV1-IV4, 40 mg/kg, 60 min): 7423 ng/mL and 6693 ng/mL and 6079 ng/mL; Brain product Ic concentration (1h after dose, individual animals IV1-IV4, listed as product Ic, 40 mg/kg, 60 min): 6424 ng/g and 8964 ng/g and 1747 ng/g and 7489 ng/g; Brain product Ic concentration (2h after dose, individual animals IV1-IV4, listed as product Ic, 40 mg/kg, 120 min): 8418 ng/g and 6966 ng/g and 7017 ng/g; Plasma product Ic concentration (4h after dose, individual animals IV1-IV4, 40 mg/kg, 240 min): 1110 ng/mL and 835 ng/mL and 830 ng/mL; Brain product Ic concentration (4h after dose, individual animals IV1-IV4, listed as product Ic, 40 mg/kg, 240 min): 6939 ng/g and 6712 ng/g and 5459 ng/g; Plasma product Ic concentration (6h after dose, individual animals IV1-IV4, 40 mg/kg, 360 min): 316 ng/mL and 346 ng/mL and 336 ng/mL; Brain product Ic concentration (6h after dose, individual animals IV1-IV4, listed as product Ic, 40 mg/kg, 360 min): 6688 ng/g and 7968 ng/g and 7350 ng/g and 3712 ng/g; Plasma product Ic concentration (8h after dose, individual animals IV1-IV4, 40 mg/kg, 480 min): 199 ng/mL and 195 ng/mL and 154 ng/mL; Brain product Ic concentration (8h after dose, individual animals IV1-IV4, listed as product Ic, 40 mg/kg, 480 min): 6977 ng/g and 8616 ng/g and 8342 ng/g; Plasma product Ic concentration (14h after dose, individual animals IV1-IV4, 40 mg/kg, 840 min): 56 ng/mL and 50 ng/mL and 52 ng/mL; Brain product Ic concentration (14h after dose, individual animals IV1-IV4, listed as product Ic, 40 mg/kg, 840 min): 10049 ng/g and 7595 ng/g and 9271 ng/g; Brain product Ic concentration (24 h after dose, individual animals IV1-IV4, listed as product Ic, 40 mg/kg, 1440 min): 9842 ng/g and 7885 ng/g and 9052 ng/g; Plasma product Ic concentration (24 h after dose, individual animals IV1-IV4, values flagged blq (below limit of accurate quantification, 20 ng.ml^-1), 40 mg/kg, 1440 min): 15(blq) ng.ml^-1 (2×) and 16(blq) ng.ml^-1; Plasma product Ic concentration (48 h after dose, individual animals IV1-IV4, blq = below 20 ng.ml^-1, n.d. = not detected (≤ l.o.d. of 4 ng.ml^-1)): 4(blq) ng.ml^-1; Brain product Ic concentration (48 h after dose, individual animals IV1-IV4, listed as product Ic, 40 mg/kg, 2880 min): 8541 ng/g and 7704 ng/g and 7986 ng/g; Brain product Ic concentration (72 h after dose, individual animals IV1-IV4, listed as product Ic, 40 mg/kg, 4320 min): 5511 ng/g and 5692 ng/g and 3894 ng/g; Plasma product Ic concentration (time after dose printed as '-' (line between 1h and 4h), MEAN): 4283 ng/mL; Plasma product Ic concentration (time after dose printed as '-' (line between 1h and 4h), individual animals IV1-IV4, 40 mg/kg): 4633 ng/mL and 4337 ng/mL and 4600 ng/mL and 3564 ng/mL; concentration at 2 min (brain, iv, 40 mg/kg, 2 min after dose, MEAN, read-out: Brain product Ic concentration): 7890 ng/g; concentration at 2 min (brain, iv, 40 mg/kg, 2 min after dose, individual animals IV1-IV4, read-out: Brain product Ic concentration): 6960 ng/g; concentration at 5 min (brain, iv, 40 mg/kg, 5 min after dose, MEAN, read-out: Brain product Ic concentration): 8170 ng/g; concentration at 5 min (brain, iv, 40 mg/kg, 5 min after dose, individual animals IV1-IV4, read-out: Brain product Ic concentration): 8340 ng/g; concentration at 0.25 h (brain, iv, 40 mg/kg, 15 min after dose, MEAN, read-out: Brain product Ic concentration): 6760 ng/g; concentration at 0.25 h (brain, iv, 40 mg/kg, 15 min after dose, individual animals IV1-IV4, read-out: Brain product Ic concentration): 5810 ng/g; concentration at 0.5 h (brain, iv, 40 mg/kg, 0.5h after dose, MEAN, read-out: Brain product Ic concentration): 7320 ng/g; concentration at 0.5 h (brain, iv, 40 mg/kg, 0.5h after dose, individual animals IV1-IV4, read-out: Brain product Ic concentration): 7260 ng/g; concentration at 0.75 h (brain, iv, 40 mg/kg, 0.75h after dose, MEAN, read-out: Brain product Ic concentration): 7640 ng/g; concentration at 0.75 h (brain, iv, 40 mg/kg, 0.75h after dose, individual animals IV1-IV4, read-out: Brain product Ic concentration): 7680 ng/g; concentration at 1 h (brain, iv, 40 mg/kg, 1h after dose, MEAN, read-out: Brain product Ic concentration): 6160 ng/g; concentration at 2 h (brain, iv, 40 mg/kg, 2h after dose, MEAN, read-out: Brain product Ic concentration): 7590 ng/g; concentration at 2 h (brain, iv, 40 mg/kg, 2h after dose, individual animals IV1-IV4, read-out: Brain product Ic concentration): 7960 ng/g; concentration at 4 h (brain, iv, 40 mg/kg, 4h after dose, MEAN, read-out: Brain product Ic concentration): 6760 ng/g
